The results in this text go back to PubChem BioAssay AID2305 (GlaxoSmithKline (GSK), 2010).

The subject of this test is P. falciparum 3D7 growth, pLDH absorbance. Put plainly: P. falciparum 3D7 growth inhibition, dose response, strain 3D7 (AID 2305).

Molecules are shown by their SMILES.

By IC50 is commonly meant the point on the concentration scale where inhibition reaches its midpoint. A higher IC50 goes with weaker potency. Turning to `Cc1cc(Nc2ccccc2)nc(Nc2ccccc2C)n1`, the IC50 is 1.04 µM. The same measure for `CN(c1cc(NC(=O)c2ccc(F)cc2)ccn1)C1CCN(Cc2cccc(F)c2)CC1`: 0.49 µM; for `Cc1ccc(F)c(NC(=O)c2c(-c3c(F)cccc3Cl)noc2C)c1`: 0.93 µM.

Molecule `CS(=O)(=O)c1ccc2nc(-c3cc(-c4ccc(OCCN5CCOCC5)cc4)cnc3N)[nH]c2c1` displayed a half-inhibitory concentration (IC50) of 1.06 µM. The value for `Cc1cccc(C(=O)Nc2ccnc(N(C)C3CCN(Cc4cccc(O)c4)CC3)c2)c1` was 0.94 µM. Consider `CCCc1cc(Cc2cnc(N)nc2N)cc(CCC)c1OCCCCC(=O)OCC`, for which the half-maximal inhibitory concentration (IC50) amounted to 0.05 µM. Consider `CCCCC1(NC(=O)[C@@H](Nc2ccc(C#N)c3ccccc23)C2CCCCC2)CCCCC1`, for which the IC50 was 1.12 µM. The value for `COc1ccc(Cl)cc1N1CCN(CCCNC(=O)c2ccc(-c3nc4cc(Cl)c(F)cc4[nH]3)c(F)c2)CC1` was 1.11 µM; that for `CC(O)C1CCCCN1C(=O)c1cccc(-c2ccc(-c3nc4ccc(F)cc4[nH]3)cc2)c1` (stereo not drawn) was 0.74 µM. Take `CC(C)(C)c1cc(NC(=O)c2ccc(Cl)c([N+](=O)[O-])c2)cc(C(C)(C)C)c1`: the IC50 was determined as 1.03 µM. The same measure for `COc1cccc(CNC(=O)c2cc(CNCc3ccccc3)ccc2-c2cccc(CNCc3ccc(-c4ccccc4)cc3)c2)c1`: 0.85 µM; for `CCCc1ccccc1Nc1nc(C)cc(N(CC)CCCN2CCCCC2)n1`: 0.62 µM. The same measure for `O=C1Nc2cccc3c2C1(CCCCN1CCC(c2c(-c4ccccc4)[nH]c4ccccc24)CC1)CCC3` (stereo not drawn): 1.2 µM. `CCN(CC)c1ccc(C=CC(=O)NCCN2CCC(N(C)C3CCCCC3C)CC2)cc1` (stereo not drawn) registered an IC50 of 0.96 µM. The IC50 values of the last two molecules are within 1.5-fold of each other. The same measure for `Cc1cc(Nc2ccc(Cl)cc2)n2nc(C(F)(F)F)nc2n1`: 0.12 µM. The value for `COc1ccccc1C1CCN(C2CCC(NC(=O)/C=C/c3ccc(C(F)(F)F)cc3)CC2)CC1` (stereo not drawn) was 1.16 µM. The same measure for `COc1ccc2nc(-c3cc(-c4ccc(NC(=O)CN5CCOCC5)cc4)cnc3N)[nH]c2c1`: 0.62 µM; for `O=C(Nc1cccc(F)c1)N(Cc1ccc(-c2cccc(CN3CCNCC3)c2)cc1)C1CCN(Cc2ccccc2)CC1`: 0.76 µM; for `O=C(Nc1ccc(-c2nc3ccccc3[nH]2)cc1)c1ccc(S(=O)(=O)N2CCCCCC2)cc1`: 0.41 µM.

In turn, `COc1cc2c(Nc3cccc(NC(=O)c4ccccc4)c3)ncnc2cc1OCCCN1CCOCC1` registered a half-maximal inhibitory concentration (IC50) of 0.15 µM. The value for `CC(Cc1ccc(OCCN2CCN(c3cccc(Cl)c3)CC2)cc1)NCC(O)c1cccc(C(F)(F)F)c1` (stereo not drawn) was 0.6 µM; that for `Cc1cc(N2CCCC2)nc(Nc2ccc(NC(=O)c3ccccc3C)cc2)n1` was 0.72 µM; that for `CCCCN(C)CC#Cc1ccc2[nH]c(C)c(Cl)c(=O)c2c1` was 0.13 µM.

As for `COc1ccc(-c2c(-c3ccc(OCc4ccccc4)cc3O)n[nH]c2C(F)(F)F)cc1`, the IC50 came out at 1.17 µM. With `COc1ccc2nccc([C@@H](O)CN3CCC(NCc4cc5cc(C)ccc5s4)CC3)c2c1`, the 50% inhibitory concentration (IC50) was 0.64 µM. The value for `CN1CCN(Cc2ccc(OCc3cccc(COc4ccc(CN5CCN(C)CC5)cc4I)c3)c(I)c2)CC1` was 1.01 µM; that for `CC(=O)C1=NN(c2ccc(C)cc2)C(c2cccs2)N1c1ccccc1` (stereo not drawn) was 0.34 µM; that for `Cc1[nH]c2ccccc2c(=O)c1[N+](=O)[O-]` was 1.11 µM.

In the case of `O=C(c1ccc([N+](=O)[O-])o1)N1CCN(c2ccccc2)CC1`, the half-maximal inhibitory concentration (IC50) is 0.04 µM. The value for `CCCC1N=C(N)N=C(N)N1c1ccc(Cl)cc1` (stereo not drawn) was 0.05 µM; that for `COc1cc2nc(N3CCC(NC(=O)c4cccc(N(C)C)c4)CC3)nc(N)c2cc1OC` was 0.61 µM; that for `COc1ccc2ncc(F)c(CCN3CCC(NCc4cc(OC)c5c(c4)OCCO5)CC3)c2n1` was 0.57 µM. Take `CC1CCCCN1CCCNc1ncc2c(-c3ccc(NC(=O)Nc4cc(C(F)(F)F)ccc4F)c(F)c3)nn(C)c2n1` (stereo not drawn): the concentration for half-maximal inhibition (IC50) was 0.26 µM. The same measure for `Cc1cc(NN=Cc2ccc(Cl)cc2)c2cc(C(F)(F)F)ccc2n1`: 0.92 µM; for `OC(Cn1ccnc1)(c1ccc(Cl)cc1Cl)C1CCCCC1` (stereo not drawn): 0.98 µM; for `CC(=O)N1N=C(c2[nH]c3ccc(Br)cc3c2C)OC1c1ccccc1` (stereo not drawn): 0.78 µM.

Molecule `CC[C@H]1CN2CC[C@@H]1C[C@H]2[C@H](O)c1ccnc2ccc(OC)cc12` came in with an IC50 of 0.23 µM. The same measure for `CC(Sc1nc2sccc2c(=O)n1C)C(=O)Nc1ccc2c(c1)OCO2` (stereo not drawn): 1.04 µM; for `Cc1ccc(-c2ccc3c(c2)C=C(C(=O)NC2CCN(CCNC(=O)c4cccc(C(F)(F)F)c4)CC2)CCC3)cc1`: 0.51 µM; for `CCC1(CC)C(=O)N=C(N2CCCCC2)N(C)C1=O`: 0.3 µM.

`Oc1ccc2c(CNC3CCCCC3)c(O)ccc2c1CNC1CCCCC1`: the IC50 stood at 0.04 µM. The value for `CC(=O)Nc1nc(C(=O)Nc2ccc(-c3cccc(-c4nc5ccc(C(F)(F)F)cc5[nH]4)c3)cc2)cs1` was 0.18 µM; that for `CCOC(=O)CCCOc1c(OC)cc(Cc2cnc(N)nc2N)cc1OC` was 0.78 µM.
